The record followed here is patent EP0113029B1, “Dicyclic hexapeptides, processes for their preparation and pharmaceutical compositions containing them” (Merck & Co., Inc., priority 1982, dated 1989).

The procedure of this series:
In order to stabilize the compound toward such decomposition it was treated in aqueous solution with 10-40 mole % of N-ethylmaleimide, a reagent which will react with free sulfhydryl groups that could catalyze disulfide interchange. The excess N-ethyl maleimide was separated by passage through a column of Sephadex° G-25 gel (superfine) eluted with 50% acetic acid.

Like-named read-outs stand apart in the source and are kept apart here. Positions of bridges follow the written chain, without caps; N, C: chain ends. Non-standard residues stand in square brackets, D forms with d. Residues, ends and D or L forms follow the SMILES beside them.

With `C[C@@H](O)[C@@H]1NC(=O)[C@H](CCCCN)NC(=O)[C@@H](Cc2c[nH]c3ccccc23)NC(=O)[C@H](Cc2ccccc2)NC(=O)[C@@H]2CSSC[C@H](NC1=O)C(=O)N2` [Example 6] (cyclo(CCF[dW]KT); disulfide 1-2), the “stability with respect to polymerization” value runs as follows: (after treatment in aqueous solution with 10-40 mole % of N-ethylmaleimide and reisolation) “completely stable”; (sample as isolated, in certain solvents or on extended storage) “unstable with respect to polymerization”.
